Values quoted from earlier work, collected in patent US6737430B2, “Mutual prodrug of amlodipine and atorvastatin” (Pfizer, Inc., priority 2000, dated 2004).

Assays:
calcium channel = settings: cited from earlier work
[1] = system: smooth muscle cell migration; settings: cited from earlier work

CCOC(=O)C1=C(COCCN)NC(C)=C(C(=O)OC)[C@H]1c1ccccc1Cl (single isomer, unassigned) [(R) enantiomer, R(−)-amlodipine]
calcium channel blocking activity (calcium channel): little or no calcium channel blocking activity | inhibition of smooth muscle cell migration [1]: potent inhibitor of smooth muscle cell migration
